Results as given in patent US20090239840A1, “AMINO SUBSTITUTED DIARYL[a,d]CYCLOHEPTENE ANALOGS AS [sequence] AGONISTS AND METHODS OF TREATMENT OF NEUROPSYCHIATRIC DISORDERS” (ACADIA PHARMACEUTICALS, INC., priority 2003, published 2009).
Like-named read-outs stand apart in the source and are kept apart here.

Legend:
muscarinic M2 receptor = target: T1, muscarinic M2 receptor (Homo sapiens, UniProt P08172); assay: R-SAT functional screen, M2; type: cell-based; settings: R-SAT; for Emax: read-out: M2 eff (efficacy); for EC50: read-out: M2 pEC50 (converted)
T1 construct: expressed in transfected cells
T1 sequence (P08172 1-466): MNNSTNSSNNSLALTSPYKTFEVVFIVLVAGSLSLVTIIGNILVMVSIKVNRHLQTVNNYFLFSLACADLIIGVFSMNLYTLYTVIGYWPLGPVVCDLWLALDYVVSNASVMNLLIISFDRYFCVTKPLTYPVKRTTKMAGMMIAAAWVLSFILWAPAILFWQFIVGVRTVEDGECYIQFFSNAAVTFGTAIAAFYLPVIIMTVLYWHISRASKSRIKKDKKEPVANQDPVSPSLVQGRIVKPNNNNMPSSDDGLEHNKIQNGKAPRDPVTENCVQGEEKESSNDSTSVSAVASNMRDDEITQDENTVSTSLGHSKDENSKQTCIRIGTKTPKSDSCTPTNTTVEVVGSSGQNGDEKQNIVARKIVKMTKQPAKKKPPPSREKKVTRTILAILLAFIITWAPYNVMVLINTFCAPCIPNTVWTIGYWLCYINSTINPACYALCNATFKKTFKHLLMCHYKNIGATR
Outline: (§1)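 Receptor Selection and Amplification Technology (R-SAT) functional cell assay at M1, M2, M3 receptors. Values reported as efficacy (eff) and potency as pEC50.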

5-HT2A receptor = 5-HT2A receptor (Homo sapiens, UniProt P28223); assay: Receptor profile, 5-HT2A inverse agonism; type: cell-based; settings: negative log of the inhibitory IC50 (inverse agonism); read-out: 5-HT2A pIEC50 (converted)
Sequence of 5-HT2A receptor (P28223 whole entry): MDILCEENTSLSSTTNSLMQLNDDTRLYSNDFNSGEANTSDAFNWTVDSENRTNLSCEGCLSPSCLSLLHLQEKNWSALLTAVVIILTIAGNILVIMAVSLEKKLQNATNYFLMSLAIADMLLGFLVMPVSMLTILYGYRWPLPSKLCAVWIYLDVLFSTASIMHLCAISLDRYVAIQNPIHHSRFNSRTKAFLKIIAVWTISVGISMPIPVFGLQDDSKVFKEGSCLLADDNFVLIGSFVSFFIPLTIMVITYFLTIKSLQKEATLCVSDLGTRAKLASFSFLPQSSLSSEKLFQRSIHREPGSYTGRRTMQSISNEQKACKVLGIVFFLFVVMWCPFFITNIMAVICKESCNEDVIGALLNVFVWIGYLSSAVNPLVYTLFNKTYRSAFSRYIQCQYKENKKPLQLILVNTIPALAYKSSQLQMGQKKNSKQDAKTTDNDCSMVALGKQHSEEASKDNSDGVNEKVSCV

D2 receptor = D2 receptor (Homo sapiens, UniProt P14416); assay: Receptor profile, D2 agonist activity; settings: for Emax: read-out: D2 intrinsic activity %; for D2 intrinsic activity, in words: devoid of agonist activity
Sequence of D2 receptor (P14416 whole entry): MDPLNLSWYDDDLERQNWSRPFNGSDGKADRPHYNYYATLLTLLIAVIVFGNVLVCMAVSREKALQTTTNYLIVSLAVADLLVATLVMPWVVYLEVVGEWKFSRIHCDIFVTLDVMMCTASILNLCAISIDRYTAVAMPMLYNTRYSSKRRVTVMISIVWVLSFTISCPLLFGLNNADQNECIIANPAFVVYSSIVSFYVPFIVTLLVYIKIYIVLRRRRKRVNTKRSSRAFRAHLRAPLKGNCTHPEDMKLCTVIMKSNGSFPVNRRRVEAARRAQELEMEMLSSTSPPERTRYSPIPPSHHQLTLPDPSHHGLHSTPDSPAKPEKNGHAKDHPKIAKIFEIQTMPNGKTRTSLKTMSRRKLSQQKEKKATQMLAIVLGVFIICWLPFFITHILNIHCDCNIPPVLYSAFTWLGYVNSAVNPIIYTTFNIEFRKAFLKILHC
Source text: (§3) Intrinsic activity was normalized to carbachol (M1) or pergolide (D2). For those ligands devoid of agonist activity, the values shown are pKi determined using [3H]raclopride.

M1 receptor = target: T2, M1 receptor (Homo sapiens, UniProt P11229); assay: Receptor profile, M1 agonist activity; settings: for Emax: read-out: M1 intrinsic activity %
T2 sequence (P11229 1-460): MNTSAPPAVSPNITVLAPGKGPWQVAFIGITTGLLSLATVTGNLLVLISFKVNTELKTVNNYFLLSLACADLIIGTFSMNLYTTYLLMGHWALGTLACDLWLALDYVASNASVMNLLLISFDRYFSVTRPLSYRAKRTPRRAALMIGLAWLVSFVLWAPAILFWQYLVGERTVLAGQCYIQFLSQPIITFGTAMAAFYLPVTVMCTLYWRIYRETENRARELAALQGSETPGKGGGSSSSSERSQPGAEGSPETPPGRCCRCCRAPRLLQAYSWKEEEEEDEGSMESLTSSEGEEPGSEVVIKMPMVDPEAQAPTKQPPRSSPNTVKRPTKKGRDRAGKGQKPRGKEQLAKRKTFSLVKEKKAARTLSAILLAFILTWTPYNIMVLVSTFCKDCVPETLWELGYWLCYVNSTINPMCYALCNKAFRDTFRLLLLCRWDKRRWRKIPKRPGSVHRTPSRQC
Source text: as §3

novel object recognition = assay: Novel object recognition (NOR) assay; type: in vivo; settings: mice; for NOR - 60 minutes post training / NOR - 120 minutes post training: dose approx. ID75 in MK-801 hyperactivity assay
Method: Salts of the compounds were administered to mice at one hour post-training (a time-point at which animals normally behaviorally discriminate between novel and familiar objects) and two hours post-training (a time-point at which these animals normally no longer discriminate between objects). Doses were selected to correspond to the approximate ID75 value in the MK-801 hyperactivity assay.

Ames mutagenesis assay = type: cell-based
[1] = tested on: hyperactivity induced by MK-801; assay: MK-801 induced hyperactivity mouse model; type: in vivo; settings: mice, salts of the compounds
Method: (§2) Five of the compounds listed in Table 2 were tested in an in vivo assay predictive of antipsychotic activity. Salts of these compounds where administered to mice having hyperactivity induced by amphetamine or MK-801 administration. The compounds were administered both subcutaneously (sc) and orally (po).

[2] = tested on: hyperactivity induced by amphetamine; assay: Amphetamine induced hyperactivity mouse model; type: in vivo; settings: mice, salts of the compounds
Method: as §2

[3] = Human microsomal clearance; type: in vitro ADME; settings: human microsomes
CYP 2C9 = CYP 2C9 (Homo sapiens, UniProt P11712); assay: CYP inhibition, 2C9; type: in vitro ADME
Sequence of CYP 2C9 (P11712 whole entry): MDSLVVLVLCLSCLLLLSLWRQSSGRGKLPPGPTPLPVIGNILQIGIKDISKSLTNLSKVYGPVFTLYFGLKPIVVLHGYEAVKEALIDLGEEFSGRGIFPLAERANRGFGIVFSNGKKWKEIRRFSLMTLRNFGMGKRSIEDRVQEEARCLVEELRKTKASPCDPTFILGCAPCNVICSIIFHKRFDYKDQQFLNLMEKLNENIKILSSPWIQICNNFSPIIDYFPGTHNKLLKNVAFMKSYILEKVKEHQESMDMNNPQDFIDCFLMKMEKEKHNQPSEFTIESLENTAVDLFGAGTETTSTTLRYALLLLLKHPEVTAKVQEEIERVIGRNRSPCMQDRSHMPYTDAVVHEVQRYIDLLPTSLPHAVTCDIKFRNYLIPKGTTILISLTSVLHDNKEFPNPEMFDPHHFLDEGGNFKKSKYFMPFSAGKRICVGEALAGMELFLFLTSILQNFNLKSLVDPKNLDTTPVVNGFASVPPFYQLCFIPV

CYP 2C19 = CYP 2C19 (Homo sapiens, UniProt P33261); assay: CYP inhibition, 2C19; type: in vitro ADME
Sequence of CYP 2C19 (P33261 whole entry): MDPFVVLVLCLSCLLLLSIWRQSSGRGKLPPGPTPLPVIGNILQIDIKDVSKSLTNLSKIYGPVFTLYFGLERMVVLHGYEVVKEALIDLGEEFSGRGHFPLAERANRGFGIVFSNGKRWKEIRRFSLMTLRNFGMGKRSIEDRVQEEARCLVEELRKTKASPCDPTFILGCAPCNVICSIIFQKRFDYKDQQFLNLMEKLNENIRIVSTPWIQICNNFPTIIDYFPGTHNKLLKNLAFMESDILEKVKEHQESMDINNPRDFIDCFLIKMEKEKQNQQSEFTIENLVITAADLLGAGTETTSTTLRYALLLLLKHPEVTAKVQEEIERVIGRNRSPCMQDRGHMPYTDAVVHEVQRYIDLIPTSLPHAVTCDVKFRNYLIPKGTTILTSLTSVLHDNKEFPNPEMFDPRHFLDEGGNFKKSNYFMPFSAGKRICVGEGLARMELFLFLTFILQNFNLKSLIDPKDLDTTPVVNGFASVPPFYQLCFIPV

Rat microsomal clearance = type: in vitro ADME; settings: rat microsomes
CYP 2D6 = CYP 2D6 (Homo sapiens, UniProt P10635); assay: CYP inhibition, 2D6; type: in vitro ADME
Sequence of CYP 2D6 (P10635 whole entry): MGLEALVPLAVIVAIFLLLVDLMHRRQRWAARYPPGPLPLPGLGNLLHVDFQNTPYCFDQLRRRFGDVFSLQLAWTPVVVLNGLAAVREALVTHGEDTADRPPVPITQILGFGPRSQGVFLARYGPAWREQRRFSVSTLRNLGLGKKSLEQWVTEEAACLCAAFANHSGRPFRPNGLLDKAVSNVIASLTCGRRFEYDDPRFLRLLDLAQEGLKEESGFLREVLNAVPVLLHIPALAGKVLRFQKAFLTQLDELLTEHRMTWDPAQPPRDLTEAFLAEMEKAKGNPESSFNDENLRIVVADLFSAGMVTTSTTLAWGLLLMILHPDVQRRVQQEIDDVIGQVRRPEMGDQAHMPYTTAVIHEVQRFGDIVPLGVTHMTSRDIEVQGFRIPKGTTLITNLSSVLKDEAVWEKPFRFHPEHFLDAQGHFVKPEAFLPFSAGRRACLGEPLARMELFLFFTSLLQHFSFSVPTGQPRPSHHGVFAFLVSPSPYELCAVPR

hERG = hERG (Homo sapiens, UniProt Q12809); assay: hERG assay
Sequence of hERG (Q12809 whole entry): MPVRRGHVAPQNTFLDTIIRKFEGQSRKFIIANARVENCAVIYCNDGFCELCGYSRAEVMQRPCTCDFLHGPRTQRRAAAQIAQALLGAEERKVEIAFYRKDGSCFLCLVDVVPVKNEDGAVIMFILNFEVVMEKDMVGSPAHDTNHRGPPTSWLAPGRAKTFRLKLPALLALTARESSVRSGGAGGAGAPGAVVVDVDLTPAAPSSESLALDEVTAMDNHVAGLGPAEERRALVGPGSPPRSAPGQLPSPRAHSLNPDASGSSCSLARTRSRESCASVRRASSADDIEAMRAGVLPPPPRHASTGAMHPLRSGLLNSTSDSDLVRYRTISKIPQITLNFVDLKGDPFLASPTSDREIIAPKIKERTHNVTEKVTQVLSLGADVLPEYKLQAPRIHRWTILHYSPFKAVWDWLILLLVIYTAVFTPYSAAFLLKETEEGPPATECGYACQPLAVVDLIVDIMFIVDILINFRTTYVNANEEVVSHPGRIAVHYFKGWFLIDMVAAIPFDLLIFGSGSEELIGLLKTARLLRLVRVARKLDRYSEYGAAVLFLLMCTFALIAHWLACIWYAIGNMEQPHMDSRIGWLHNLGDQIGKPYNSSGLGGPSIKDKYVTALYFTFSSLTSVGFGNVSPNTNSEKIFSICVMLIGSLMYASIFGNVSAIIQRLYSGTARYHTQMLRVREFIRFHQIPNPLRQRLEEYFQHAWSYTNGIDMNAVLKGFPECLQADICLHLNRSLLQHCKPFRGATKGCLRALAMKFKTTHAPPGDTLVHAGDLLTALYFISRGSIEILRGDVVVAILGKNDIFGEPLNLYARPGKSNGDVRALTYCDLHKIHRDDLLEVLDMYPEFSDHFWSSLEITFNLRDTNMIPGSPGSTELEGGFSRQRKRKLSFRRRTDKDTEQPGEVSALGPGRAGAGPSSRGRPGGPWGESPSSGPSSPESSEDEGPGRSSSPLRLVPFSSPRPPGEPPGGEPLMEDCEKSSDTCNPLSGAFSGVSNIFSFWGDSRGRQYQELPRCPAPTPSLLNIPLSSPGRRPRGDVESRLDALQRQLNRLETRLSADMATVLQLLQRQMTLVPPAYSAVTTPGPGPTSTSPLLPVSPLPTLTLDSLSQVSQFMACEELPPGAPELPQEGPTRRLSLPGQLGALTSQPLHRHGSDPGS

CYP 3A4 = CYP 3A4 (Homo sapiens, UniProt P08684); assay: biochemical
Sequence of CYP 3A4 (P08684 whole entry): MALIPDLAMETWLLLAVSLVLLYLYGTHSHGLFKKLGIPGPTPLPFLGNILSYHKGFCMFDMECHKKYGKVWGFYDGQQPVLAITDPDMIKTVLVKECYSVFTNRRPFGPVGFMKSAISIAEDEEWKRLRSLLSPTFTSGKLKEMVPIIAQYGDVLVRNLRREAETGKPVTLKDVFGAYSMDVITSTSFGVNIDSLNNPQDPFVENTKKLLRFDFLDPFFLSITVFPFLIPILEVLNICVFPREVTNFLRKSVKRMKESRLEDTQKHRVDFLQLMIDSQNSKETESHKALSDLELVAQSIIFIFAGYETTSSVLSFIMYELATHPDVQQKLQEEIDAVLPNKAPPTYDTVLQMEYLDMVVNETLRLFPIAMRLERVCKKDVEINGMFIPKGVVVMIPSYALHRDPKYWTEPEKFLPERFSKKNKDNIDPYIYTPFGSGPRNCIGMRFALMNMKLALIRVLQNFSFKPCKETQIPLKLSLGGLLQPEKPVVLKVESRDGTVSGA
Method: The compounds listed in Table 4 were profiled in a panel of in vitro assays for assessment of cardiovascular (hERG), drug-drug interaction (CYP inhibition), and mutagenic (Ames) liability. Microsomal stability was also determined by measuring both rat and human microsomal clearance.

CYP 1A2 = target: T3, CYP 1A2 (Homo sapiens, UniProt P05177); assay: CYP inhibition, 1A2; type: in vitro ADME
T3 sequence (P05177 1-516): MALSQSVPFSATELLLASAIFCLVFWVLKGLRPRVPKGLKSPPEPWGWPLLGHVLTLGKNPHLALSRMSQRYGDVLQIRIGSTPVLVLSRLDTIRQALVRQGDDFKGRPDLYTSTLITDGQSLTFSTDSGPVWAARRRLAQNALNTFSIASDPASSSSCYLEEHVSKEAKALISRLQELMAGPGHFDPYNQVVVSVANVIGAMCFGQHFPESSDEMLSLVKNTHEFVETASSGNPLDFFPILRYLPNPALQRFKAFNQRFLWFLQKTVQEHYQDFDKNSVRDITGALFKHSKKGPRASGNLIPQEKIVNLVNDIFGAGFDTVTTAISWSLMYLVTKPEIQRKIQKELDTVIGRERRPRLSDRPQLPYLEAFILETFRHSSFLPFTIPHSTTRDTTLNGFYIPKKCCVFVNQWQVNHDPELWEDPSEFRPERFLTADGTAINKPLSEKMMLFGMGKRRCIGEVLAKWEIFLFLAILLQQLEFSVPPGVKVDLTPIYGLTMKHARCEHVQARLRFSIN

muscarinic M1 receptor = target: T4, muscarinic M1 receptor (Homo sapiens, UniProt P11229); assay: R-SAT functional screen, M1; type: cell-based; settings: R-SAT; for Emax: read-out: M1 eff (efficacy); for EC50: read-out: M1 pEC50 (converted)
T4 construct: expressed in transfected cells
T4 sequence (P11229 1-460): T2 sequence (P11229 1-460)
Outline: as §1

muscarinic M3 receptor = target: T5, muscarinic M3 receptor (Homo sapiens, UniProt P20309); assay: R-SAT functional screen, M3; type: cell-based
T5 construct: expressed in transfected cells
T5 sequence (P20309 whole entry): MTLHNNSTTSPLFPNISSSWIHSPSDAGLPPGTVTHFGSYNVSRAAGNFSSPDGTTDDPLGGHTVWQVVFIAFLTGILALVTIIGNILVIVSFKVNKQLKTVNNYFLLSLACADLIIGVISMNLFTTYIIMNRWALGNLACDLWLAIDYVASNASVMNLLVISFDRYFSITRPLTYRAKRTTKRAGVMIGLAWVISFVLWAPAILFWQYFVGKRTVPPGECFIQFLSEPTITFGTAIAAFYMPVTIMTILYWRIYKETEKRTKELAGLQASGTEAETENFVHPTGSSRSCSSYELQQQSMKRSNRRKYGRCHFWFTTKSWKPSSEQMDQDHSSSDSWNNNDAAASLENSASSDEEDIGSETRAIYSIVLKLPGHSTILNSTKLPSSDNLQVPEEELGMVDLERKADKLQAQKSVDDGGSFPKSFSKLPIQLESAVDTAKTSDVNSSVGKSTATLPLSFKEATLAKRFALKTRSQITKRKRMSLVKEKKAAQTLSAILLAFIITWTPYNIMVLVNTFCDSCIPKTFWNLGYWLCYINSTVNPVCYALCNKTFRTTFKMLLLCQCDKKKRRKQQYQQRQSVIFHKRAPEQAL
Source text: The term “modulate” refers to the ability of a compound disclosed herein to alter the function of a muscarinic receptor. A modulator may activate the activity of a muscarinic receptor, may activate or inhibit the activity of a muscarinic receptor depending on the concentration of the compound exposed to the muscarinic receptor, or may inhibit the activity of a muscarinic receptor. The term “modulate” also refers to altering the function of a muscarinic receptor by increasing or decreasing the probability that a complex forms between a muscarinic receptor and a natural binding partner. A modulator may increase the probability that such a complex forms between the muscarinic receptor and the natural binding partner, may increase or decrease the probability that a complex forms between the muscarinic receptor and the natural binding partner depending on the concentration of the compound exposed to the muscarinic receptor, and or may decrease the probability that a complex forms between the muscarinic receptor and the natural binding partner. In some embodiments, modulation of the muscarinic receptor may be assessed using Receptor Selection and Amplification Technology (R-SAT) as described in U.S. Pat. No. 5,707,798, the disclosure of which is incorporated herein by reference in its entirety.
Several compounds disclosed herein were evaluated for activity at muscarinic receptors using Receptor Selection and Amplification Technology (R-SAT) as described in U.S. Pat. No. 5,707,798, the disclosure of which is incorporated herein by reference in its entirety. The efficacy (eff) and potency (expressed as pEC50) of these compounds are presented in Table 1 at M1, M2, and M3 receptors.

Row | Compound | Emax (muscarinic M2 receptor) [%] | EC50 (muscarinic M2 receptor) [nM] | IC50 (5-HT2A receptor) [nM] | EC50 (D2 receptor) [nM] | Emax (D2 receptor) [%] | EC50 (M1 receptor) [nM] | Emax (M1 receptor) [%] | NOR Interpretation (novel object recognition) | NOR - 60 minutes post training (novel object recognition) | NOR - 120 minutes post training (novel object recognition) | MK-801 model (ID50 mg/kg po) [1] [mg/kg] | MK-801 model (ID50 mg/kg sc) [1] [mg/kg] | Amphetamine model (ID50 mg/kg po) [2] [mg/kg] | Amphetamine model (ID50 mg/kg sc) [2] [mg/kg] | other results
1 | Fc1ccc2c(c1)N=C(N1CCNCC1)c1ccccc1O2 [8-Fluoro-11-(piperazin-1-yl)-dibenzo[b,f][1,4]oxazepine] | 48 | 2510 | 501 | 15.8 | 73 | 316 | 39 |  |  |  |  |  |  |  | 
2 | Clc1ccc2c(c1)N=C(N1CCNCC1)c1ccccc1N2 [N-desmethylclozapine, reference compound] |  |  |  |  |  |  |  | no effect | retained | not retained | 1.5 | 3.5 | >10 | 5.2 | Ames (Ames mutagenesis assay): Neg.
3 | Brc1ccc2c(c1)N=C(N1CCNCC1)c1ccccc1O2 [8-Bromo-11-(piperazin-1-yl)-dibenzo[b,f][1,4]oxazepine] | 70 | 1260 | 25.1 | 50.1 | 34 | 398 | 36 |  |  |  |  |  |  |  | 
4 | Clc1ccc2c(c1)N=C(N1CCNCC1)c1ccccc1C2 [3-Chloro-6-piperazin-1-yl-11H-dibenzo[b,e]azepine] | 113 | 1260 | 31.6 | 12.6 | 33 | 100 | 62 | no effect | retained | not retained | 1.6 | 0.7 | 2.8 | 3.6 | microsomal CLint [3]: 21 µL/min/mg; IC50 (CYP 2C9): > 10000 nM; IC50 (CYP 2C19): > 10000 nM; microsomal CLint (Rat microsomal clearance): 383 µL/min/mg; IC50 (CYP 2D6): > 10000 nM; IC50 (hERG): 1200 nM; Ames (Ames mutagenesis assay; to 10 μM (cytotoxicity precluded evaluation of all concentrations)): Neg.; IC50 (CYP 3A4): ~4000 nM; IC50 (CYP 1A2): > 10000 nM
5 | Cc1cccc2c1Oc1ccc(C(F)(F)F)cc1N=C2N1CCNCC1 [4-Methyl-11-(piperazin-1-yl)-8-trifluoromethyl-dibenzo[b,f][1,4]oxazepine] | 75 | 794 | 2510 |  |  | 316 | 52 |  |  |  |  | >10 |  |  | D2 intrinsic activity, in words (D2 receptor): antagonist
6 | Clc1cccc2c1C(N1CCNCC1)=Nc1cc(Br)ccc1N2 [8-Bromo-1-chloro-11-(piperazin-1-yl)-5H-dibenzo[b,e][1,4]diazepine] | 105 | 2510 |  |  |  |  |  |  |  |  |  |  |  |  | Emax (muscarinic M1 receptor): 66%; EC50 (muscarinic M1 receptor): 126 nM; M3 eff (efficacy) (muscarinic M3 receptor): 4
7 | CC1CN(C2=Nc3cc(Cl)ccc3Nc3ccccc32)CCN1 (stereo not drawn) [8-Chloro-11-(3-methyl-piperazin-1-yl)-5H-dibenzo[b,e][1,4]diazepine] | 159 | 1580 |  |  |  |  |  |  |  |  |  |  |  |  | Emax (muscarinic M1 receptor): 28%; EC50 (muscarinic M1 receptor): 100 nM; M3 eff (efficacy) (muscarinic M3 receptor): 19
8 | Cc1cccc2c1Oc1ccc(Cl)cc1N=C2N1CCNCC1 [8-Chloro-4-methyl-11-(piperazin-1-yl)-dibenzo[b,f][1,4]oxazepine] | 71 | 631 | 31.6 |  |  | 200 | 71 | procognitive | retained | retained | 1.9 | 0.5 | >10 | 3.4 | microsomal CLint [3]: 16 µL/min/mg; IC50 (CYP 2C9): > 10000 nM; IC50 (CYP 2C19): > 10000 nM; microsomal CLint (Rat microsomal clearance): 27 µL/min/mg; IC50 (CYP 2D6): > 10000 nM; IC50 (hERG): 2000 nM; Ames (Ames mutagenesis assay; to 5 μM (cytotoxicity precluded evaluation of all concentrations)): Neg.; D2 intrinsic activity, in words (D2 receptor): antagonist; IC50 (CYP 3A4): 1800 nM; IC50 (CYP 1A2): 1800 nM
